Test results: patent US11267812B2 (Mirati Therapeutics, Inc., priority 2016, dated 2022)
Like-named read-outs stand apart in the source and are kept apart here.

Key:
[1] = tested on: Phospho-ERK in NCI-H358 cells expressing KRas G12C; test: Cellular inhibition of KRas G12C by Phospho-ERK measurement in NCI-H358 cells; assay type: cell-based; conditions: Homo sapiens, read-out: IC50 (pERK(Thr202/Tyr204) normalized with GAPDH)
How it was run: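 After 8–12 h attachment, NCI-H358 cells were treated with compounds for 3 h (0.5% DMSO final), fixed, methanol-permeabilized and immunostained. pERK(Thr202/Tyr204) was read by infrared imaging and normalized to GAPDH as percent of DMSO control. IC50 came from a 4-parameter fit.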

KRas G12C = KRas G12C (Homo sapiens, UniProt P01116, C118S/C51S/C80L/G12C); test: KRas G12C Modification Assay (LCMS detection of covalent adduct); assay type: binding; conditions: 5 μM compound, 3 hours
Protocol: A 10 μL aliquot of each protein solution was then transferred to a 384 well microtiter plate. Initial compound stocks were generated at fifty times their desired final assay concentration in DMSO.
Exemplary compounds of Formula (I) were diluted 25-fold into K-Ras Assay Buffer to a final of two times their final concentration. A 10 μL aliquot of each diluted compound solution was then added to each of the protein solutions in the microtiter plate to initiate reaction. […] At each time point, the reactions were quenched with 20 μL of a 25 mM acetic acid solution. […] Once all reactions were quenched, the plates were heat sealed and the samples were injected into a LC/MS system for data acquisition.
Samples were injected in their liquid phase onto a C-3 reverse phase column to remove assay buffer and prepare the samples for mass spectrometer. The proteins were eluted from the column using an acetonitrile gradient and fed directly into the mass analyzer. Initial raw data analysis took place in Agilent MassHunter software immediately post data acquisition.
Raw data analysis of the intact protein was exclusively a deconvolution of the multiple charge states of each protein in solution using a maximum entropy deconvolution provided in Mass Hunter. To minimize complexity, only the data over limited mass ranges were considered for analysis, with a minimum of one Dalton mass step intervals. The heights of all masses identified during raw data analysis were exported to be further analyzed in Spotfire® data analysis software.
Final data analysis was a multistep process in the Spotfire® data analysis software package. Briefly, each protein mass was calculated as a percent of the total signal of that sample, that percentage was then normalized to the percentage of signal of the protein in the absence of reactive compounds. Those normalized signals were reported as normalized percent of control (POC). […] Key: “A”≤25% POC; “B”>25% POC≤50% POC; “C”>50% POC and ND=not determined.

[2] = NCI-H358 cells, 3 hours compound treatment

Compound	POC (normalized percent of control, KRas G12C modification) (KRas G12C)	IC50 [1, 2]	IC50 ([1]; NCI-H358, 3 h)
C=CC(=O)N1CCN(c2nc(OC[C@@H]3CCCN3C)nc3c2CCN(c2ccccc2C(F)(F)F)C3)CC1CC#N (stereo partly drawn) [Example 210, 2-(1-acryloyl-4-(2-(((S)-1-methylpyrrolidin-2-yl)methoxy)-7-(2-(trifluoromethyl)phenyl)-5,6,7,8-tetrahydropyrido[3,4-d]pyrimidin-4-yl)piperazin-2-yl)acetonitrile]	C (“C”>50% POC)	1 to 1000 nM	
C=CC(=O)N1CCN(c2nc(OCCN(C)C)nc3c2CCN(c2cc(O)cc4ccccc24)C3)CC1CC#N (stereo not drawn) [Example 170, 2-(1-acryloyl-4-(2-(2-(dimethylamino)ethoxy)-7-(3-hydroxynaphthalen-1-yl)-5,6,7,8-tetrahydropyrido[3,4-d]pyrimidin-4-yl)piperazin-2-yl)acetonitrile]	C (“C”>50% POC)	1 to 1000 nM	
C=CC(=O)N1CCN(c2nc(OC[C@H]3CCCN3C)nc3c2CCN(c2cccc4ccccc24)C3)C[C@@H]1CC#N [Example 267, 2-((S)-1-acryloyl-4-(2-(((R)-1-methylpyrrolidin-2-yl)methoxy)-7-(naphthalen-1-yl)-5,6,7,8-tetrahydropyrido[3,4-d]pyrimidin-4-yl)piperazin-2-yl)acetonitrile]	C (“C”>50% POC)		1 to 1000 nM
C=CC(=O)N1CCN(c2nc(OC[C@@H]3CCCN3C)nc3c2CCN(c2cccc4ccncc24)C3)CC1CC#N (stereo partly drawn) [Example 244, 2-[4-[7-(8-isoquinolyl)-2-[[(2S)-1-methylpyrrolidin-2-yl]methoxy]-6,8-dihydro-5H-pyrido[3,4-d]pyrimidin-4-yl]-1-prop-2-enoyl-piperazin-2-yl]acetonitrile]	C (“C”>50% POC)	1 to 1000 nM	
C=CC(=O)N1CCN(c2nc(OC[C@H]3CCCN3C)nc3c2CCN(c2cccc4ccccc24)C3)CC1CC#N (stereo partly drawn) [Example 183, 2-[4-[2-[[(2R)-1-methylpyrrolidin-2-yl]methoxy]-7-(1-naphthyl)-6,8-dihydro-5H-pyrido[3,4-d]pyrimidin-4-yl]-1-prop-2-enoyl-piperazin-2-yl]acetonitrile]	C (“C”>50% POC)		1 to 1000 nM
CC#CC(=O)N1CCN(c2nc(OC[C@@H]3CCCN3C)nc3c2CCN(c2cccc4ccccc24)C3)CC1CC#N (stereo partly drawn) [Example 242, 2-(1-(but-2-ynoyl)-4-(2-(((S)-1-methylpyrrolidin-2-yl)methoxy)-7-(naphthalen-1-yl)-5,6,7,8-tetrahydropyrido[3,4-d]pyrimidin-4-yl)piperazin-2-yl)acetonitrile]	C (“C”>50% POC)		1 to 1000 nM
C=CC(=O)N1CCN(c2nc(OC[C@]3(C)CCCN3C)nc3c2CCN(c2cccc4ccccc24)C3)CC1CC#N (stereo partly drawn) [Example 251, 2-(1-acryloyl-4-(2-(((S)-1,2-dimethylpyrrolidin-2-yl)methoxy)-7-(naphthalen-1-yl)-5,6,7,8-tetrahydropyrido[3,4-d]pyrimidin-4-yl)piperazin-2-yl)acetonitrile]	C (“C”>50% POC)	1 to 1000 nM	
C=CC(=O)N1CCN(c2nc(OCCCN3CCOCC3)nc3c2CCN(c2cc(O)cc4sc(C)nc24)C3)CC1 [Example 166, 1-[4-[7-(6-hydroxy-2-methyl-1,3-benzothiazol-4-yl)-2-(3-morpholinopropoxy)-6,8-dihydro-5H-pyrido[3,4-d]pyrimidin-4-yl]piperazin-1-yl]prop-2-en-1-one]	B (“B”>25% POC≤50% POC)		
C=CC(=O)N1CCN(c2nc(OC[C@@H]3CCCN3C)nc3c2CCN(c2ccccc2C(C)C)C3)CC1 [Example 158, 1-[4-[7-(2-isopropylphenyl)-2-[[(2S)-1-methylpyrrolidin-2-yl]methoxy]-6,8-dihydro-5H-pyrido[3,4-d]pyrimidin-4-yl]piperazin-1-yl]prop-2-en-1-one]	C (“C”>50% POC)		
C=CC(=O)N1CCN(c2nc(OC[C@@H]3CCCN3C)nc3c2CCN(c2c(C(C)C)ccc4[nH]ncc24)C3)CC1 [Example 248, (S)-1-(4-(7-(5-isopropyl-1H-indazol-4-yl)-2-((1-methylpyrrolidin-2-yl)methoxy)-5,6,7,8-tetrahydropyrido[3,4-d]pyrimidin-4-yl)piperazin-1-yl)prop-2-en-1-one]	C (“C”>50% POC)		
C=CC(=O)N1CCN(c2nc(OCCN(C)C)nc3c2CCN(c2cc(O)cc4ccccc24)C3)CC1CCO (stereo not drawn) [Example 171, 1-(4-(2-(2-(dimethylamino)ethoxy)-7-(3-hydroxynaphthalen-1-yl)-5,6,7,8-tetrahydropyrido[3,4-d]pyrimidin-4-yl)-2-(2-hydroxyethyl)piperazin-1-yl)prop-2-en-1-one]	C (“C”>50% POC)		
C=CC(=O)N1CCN(c2nc(OCCCN3CCOCC3)nc3c2CCN(c2cc(O)cc4cc(C)[nH]c24)C3)CC1 [Example 167, 1-(4-(7-(5-hydroxy-2-methyl-1H-indol-7-yl)-2-(3-morpholinopropoxy)-5,6,7,8-tetrahydropyrido[3,4-d]pyrimidin-4-yl)piperazin-1-yl)prop-2-en-1-one]	B (“B”>25% POC≤50% POC)		

Now from value to compound, other results behind:

POC (normalized percent of control, KRas G12C modification) (KRas G12C)	Compound	IC50 [1, 2]	IC50 ([1]; NCI-H358, 3 h)
C (“C”>50% POC)	C=CC(=O)N1CCN(c2nc(OC[C@@H]3CCCN3C)nc3c2CCN(c2c(F)c(O)cc4ccccc24)C3)CC1 [Example 249, 1-[4-[7-(2-fluoro-3-hydroxy-1-naphthyl)-2-[[(2S)-1-methylpyrrolidin-2-yl]methoxy]-6,8-dihydro-5H-pyrido[3,4-d]pyrimidin-4-yl]piperazin-1-yl]prop-2-en-1-one]	1 to 1000 nM	
C (“C”>50% POC)	C=CC(=O)N1CCN(c2nc(OC[C@@H]3CCCN3C)nc3c2CCN(c2c(C)c(O)cc4ccccc24)C3)CC1 [Example 175, (S)-1-(4-(7-(3-hydroxy-2-methylnaphthalen-1-yl)-2-((1-methylpyrrolidin-2-yl)methoxy)-5,6,7,8-tetrahydropyrido[3,4-d]pyrimidin-4-yl)piperazin-1-yl)prop-2-en-1-one]	1 to 1000 nM	
C (“C”>50% POC)	C=CC(=O)N1CCN(c2nc(OCCCN3CCOCC3)nc3c2CCN(c2c(F)c(O)cc4ccccc24)C3)CC1 [Example 165, 1-[4-[7-(2-fluoro-3-hydroxy-1-naphthyl)-2-(3-morpholinopropoxy)-6,8-dihydro-5H-pyrido[3,4-d]pyrimidin-4-yl]piperazin-1-yl]prop-2-en-1-one]		
C (“C”>50% POC)	C=CC(=O)N1CCN(c2nc(OCCCN3CCOCC3)nc3c2CCN(c2c(C)c(O)cc4ccccc24)C3)CC1 [Example 173, 1-(4-(7-(3-hydroxy-2-methylnaphthalen-1-yl)-2-(3-morpholinopropoxy)-5,6,7,8-tetrahydropyrido[3,4-d]pyrimidin-4-yl)piperazin-1-yl)prop-2-en-1-one]		
C (“C”>50% POC)	C=CC(=O)N1CCN(c2nc(OC[C@@H]3CCCN3C)nc3c2CCN(c2cc(O)cc4ccccc24)C3)CC1CC#N (stereo partly drawn) [Example 182, 2-[4-[7-(3-hydroxy-1-naphthyl)-2-[[(2S)-1-methylpyrrolidin-2-yl]methoxy]-6,8-dihydro-5H-pyrido[3,4-d]pyrimidin-4-yl]-1-prop-2-enoyl-piperazin-2-yl]acetonitrile]	1 to 1000 nM	
C (“C”>50% POC)	C=CC(=O)N1CCN(c2nc(OCCN3CCC[C@@H](F)C3)nc3c2CCN(c2cc(O)cc4ccccc24)C3)CC1 [Example 207, (R)-1-(4-(2-(2-(3-fluoropiperidin-1-yl)ethoxy)-7-(3-hydroxynaphthalen-1-yl)-5,6,7,8-tetrahydropyrido[3,4-d]pyrimidin-4-yl)piperazin-1-yl)prop-2-en-1-one]		
C (“C”>50% POC)	C=CC(=O)N1CCN(c2nc(OCCCN3CCOCC3)nc3c2CCN(c2cc(O)cc4cccnc24)C3)CC1 [Example 205, 1-(4-(7-(6-hydroxyquinolin-8-yl)-2-(3-morpholinopropoxy)-5,6,7,8-tetrahydropyrido[3,4-d]pyrimidin-4-yl)piperazin-1-yl)prop-2-en-1-one]		
C (“C”>50% POC)	C=CC(=O)N1CCN(c2nc(OCCCN3C[C@@H](F)[C@@H](F)C3)nc3c2CCN(c2cc(O)cc4ccccc24)C3)CC1 [Example 208, 1-(4-(2-(3-((3R,4S)-3,4-difluoropyrrolidin-1-yl)propoxy)-7-(3-hydroxynaphthalen-1-yl)-5,6,7,8-tetrahydropyrido[3,4-d]pyrimidin-4-yl)piperazin-1-yl)prop-2-en-1-one]		
